Values joined by “and” are separate entries in the source; they are usually repeats but may differ in a detail not shown here. Equal values may be shown once.
How the values were obtained:
rat PTP1 = target: T1, rat PTP1 (Rattus norvegicus, UniProt P20417); test: PTP1 assay, pNPP hydrolysis (rate of change in A405); assay type: biochemical; conditions: pNPP hydrolysis, Table 2, read-out: PTP1 Inhib PTP1N. % Inhib; for inhibition at 1 µM: Conc 1 uM; for inhibition at 10 µM: Conc 10 uM; for inhibition at 100 µM: Conc 100 uM
T1 construct: a C-terminal truncation of rat PTP1 (amino acid residues 1-322); GST (N, cleaved yes); made in house; host or cells: E. coli strain TG-1 (pGEX-2T)
T1 sequence (P20417 1-322): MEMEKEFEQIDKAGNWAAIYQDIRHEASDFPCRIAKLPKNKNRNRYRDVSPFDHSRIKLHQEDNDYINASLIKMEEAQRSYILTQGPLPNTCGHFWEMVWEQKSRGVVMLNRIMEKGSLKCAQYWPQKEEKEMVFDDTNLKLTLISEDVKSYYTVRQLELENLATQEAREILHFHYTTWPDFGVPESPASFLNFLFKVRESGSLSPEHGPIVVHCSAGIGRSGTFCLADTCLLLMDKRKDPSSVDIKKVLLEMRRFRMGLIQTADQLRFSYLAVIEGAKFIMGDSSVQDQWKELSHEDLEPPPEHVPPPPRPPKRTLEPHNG
How it was run: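 Thrombin-cleaved rat PTP1 residues 1-322 (35 ng/ml) with 1 mM pNPP in 50 mM Hepes pH 7.2, NaCl, EDTA, DTT, BSA at room temperature. A405 rate followed 60 min. Compounds added as 10 mM solutions; percent inhibition relative to plate DMSO controls, 1 mM orthovanadate as full-inhibition control.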

human PTP1B = target: T2, human PTP1B (Homo sapiens, UniProt P18031); test: PTP1B assay, pNPP hydrolysis, assayed exactly as for PTP1; assay type: biochemical; conditions: for inhibition at 1 µM / inhibition at 10 µM / inhibition at 100 µM: Table 2, read-out: PTP1B Inhib PTP1B. % Inhib; for PTP1B Inhib PTP1B. % Inhib: Table 2
T2 construct: human PTP1B (amino acid residues 1-321); made in house; host or cells: E. coli BL21(DE3)
T2 sequence (P18031 1-321): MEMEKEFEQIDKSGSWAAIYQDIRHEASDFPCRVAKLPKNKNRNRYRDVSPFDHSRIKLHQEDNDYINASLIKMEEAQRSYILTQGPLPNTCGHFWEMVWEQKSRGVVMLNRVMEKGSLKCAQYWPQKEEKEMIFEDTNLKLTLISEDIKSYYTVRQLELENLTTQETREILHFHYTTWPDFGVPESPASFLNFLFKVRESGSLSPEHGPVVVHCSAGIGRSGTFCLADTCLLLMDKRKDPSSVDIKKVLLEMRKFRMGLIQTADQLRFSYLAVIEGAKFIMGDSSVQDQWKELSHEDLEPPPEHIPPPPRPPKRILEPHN
From the text: The equivalent construct of human PTP1B (amino acid residues 1-321) (cloned from a human placental library), without the GST tag and thrombin cleavage site, was inserted into a pMB replicon and transformed into E. coli BL21(DE3), a strain containing a chromosomal copy of the gene for T7 RNA polymerase under control of a lacUV5 promoter. Expression of PTP1B was induced with isopropyl thiogalactose and the soluble protein was purified by ion exchange, hydrophobic interaction and gel exclusion chromatography for use in the assay to identify PTP inhibitors.
PTP1 activity is measured using either p-nitrophenol phosphate (pNPP) or a triphosphopeptide (that matches residues 1142 through 1153 of the β-subunit and the insulin receptor) as substrate in a 96-well microtiter plate format. An assay pH of 7.2 is used for standard assays (measured 405=9800 at pH 7.2).
Human PTP1B, which is highly homologous to rat PTP1, was assayed exactly as described above for PTP1.
Standard assays are conducted at room temperature in a total volume of 0.2 ml that contains Hepes buffer (50 mM, pH 7.2), NaCl (50 mM), EDTA (1 mM), DTT (1 mM), bovine serum albumin (1 mg/ml), pNPP (1 mM) and PTP1 (35 ng/ml). Compounds (2 μl of 10 mM solutions) are pipetted into wells of microtiter plates followed by 198 μl of premixed reaction mix (with PTP1 and pNPP added immediately before use). The rate of change in A405 is recorded for 60 min. Two wells on each plate contain DMSO controls and two wells contain sodium orthovanadate (1 mM) which inhibits PTP1-catalyzed hydrolysis of pNPP completely. Data are expressed as percent inhibition relative to the average of the DMSO controls measured on the same microtiter plate.

SMILES	inhibition at 1 µM (rat PTP1)	inhibition at 10 µM (rat PTP1)	inhibition at 100 µM (rat PTP1)	inhibition at 1 µM (human PTP1B; Conc 1 uM)	inhibition at 10 µM (human PTP1B; Conc 10 uM)	inhibition at 100 µM (human PTP1B; Conc 100 uM)	PTP1B Inhib PTP1B. % Inhib (human PTP1B; Conc 1 uM)	PTP1B Inhib PTP1B. % Inhib (human PTP1B; Conc 10 uM)	PTP1B Inhib PTP1B. % Inhib (human PTP1B; Conc 100 uM)
CCCCCNC(=O)C(Cc1ccc(OCCOO)c(COO)c1)NC(=O)C(Cc1ccccc1)NC(=O)Cc1c[nH]c2ccccc12 (centres unmarked)				47%	88%	98%			
CCCCCNC(=O)C(Cc1ccc(OC(COO)C(=O)O)cc1)C(=O)NCCC(=O)O (centres unmarked)				9%	15%	48%			
CCCCCNC(=O)C(Cc1ccc(OCCOO)c(COO)c1)NC(=O)C(Cc1ccccc1)NC(C)=O (centres unmarked)				28%	77%	96%			
CCCCCNC(=O)C(Cc1ccc(OCCOO)c(COO)c1)NC(=O)C(Cc1ccccc1)NC(=O)Cc1ccc(OC)cc1 (centres unmarked)				46%	87%	97%			
CCCCCNC(=O)C(Cc1ccc(OCC(=O)O)c(OCC(=O)O)c1)NC(=O)C(Cc1ccccc1)NC(=O)OC(C)(C)C (centres unmarked)				1%	5%	25%			
CCCCCNC(=O)C(Cc1ccc(OCCOO)c(COO)c1)NC(=O)C(Cc1ccccc1)NC(=O)Cc1ccc(O)cc1 (centres unmarked)				46%	88%	98%			
CC(C)(C)OC(=O)N[C@@H](Cc1ccccc1)C(=O)N[C@H](CO)Cc1ccc(OCC(=O)O)c(C(=O)O)c1 [drawing 222]				5%	31%	80%			
CCCCCNC(=O)[C@H](Cc1ccc(OCC(=O)O)c(-c2nn[nH]n2)c1)NC(=O)[C@H](Cc1ccccc1)NC(=O)OC(C)(C)C						87%			97%
CCCCCNC(=O)C(Cc1ccc(OCCOO)c(COO)c1)NC(=O)C(Cc1ccccc1)NC(=O)Cc1ccccc1 (centres unmarked)				45%	87%	98%			
CCCCCNC(=O)C(Cc1ccc(OC(COO)COO)cc1)NC(=O)N(Cc1ccccc1)Cc1ccccc1 (centres unmarked)				18%	65%	95%	14%	59%	93%
CC(C)(C)OC(=O)N[C@@H](Cc1ccccc1)C(=O)N[C@@H](Cc1ccc(OCC(=O)O)c(C(=O)O)c1)C(=O)NCCCCc1ccccc1 [drawing 221]				64%	93%	98%			
CCCCCNC(=O)C(Cc1ccc(OC(COO)COO)cc1)NC(=O)N(Cc1cccc(C(=O)O)c1)Cc1cccc(C(F)(F)F)c1 (centres unmarked)				3%	9%	58%			
CCCCCNC(=O)C(Cc1ccc(OCCOO)c(COO)c1)NC(=O)CCc1ccccc1 (centres unmarked)				4%	15%	60%			
CCCCCNC(=O)[C@H](Cc1ccc(OC(F)C(=O)O)c(C(=O)O)c1)NC(=O)[C@H](Cc1ccccc1)NC(=O)OC(C)(C)C (some centres unmarked)				34%	76%	95%			
CCCCCNC(=O)C(Cc1ccc(OC(COO)COO)cc1)NC(=O)C(Cc1ccccc1)NC(=O)CCN(CC)CC (centres unmarked)				12%	54%	92%			
CCCCCNC(=O)C(Cc1ccc(OCCOO)c(COO)c1)NC(=O)C(Cc1ccccc1)NC(=O)CCNC(=O)OC(C)(C)C (centres unmarked)				19%	75%	96%			
CCCCCNC(=O)C(Cc1ccc(OCCOO)c(COO)c1)NC(=O)C(Cc1ccccc1)NC(=O)Cc1ccc(C(F)(F)F)cc1 (centres unmarked)				39%	85%	98%			
CCCCCNC(=O)C(Cc1ccc(OCCOO)c(COO)c1)NC(=O)C(Cc1ccccc1)NC(=O)CCC(=O)O (centres unmarked)				64%	93%	98%	66%	92%	
CCCCCNC(=O)C(Cc1ccc(OCCOO)c(COO)c1)NC(=O)C(Cc1ccccc1)NC(=O)CCc1ccccc1 (centres unmarked)				22%	74%	95%			
CCCCCNC(=O)C(Cc1ccc(OCCOO)c(COO)c1)NC(=O)C(Cc1ccccc1)NC(=O)Cc1ccc(C)cc1 (centres unmarked)				39%	85%	98%			
CCCCCNC(=O)C(Cc1ccc(OCCOO)c(COO)c1)NC(=O)C(Cc1ccccc1)NC(=O)CCNS(C)(=O)=O (centres unmarked)				15%	73%	95%			

Continued, values first:

inhibition at 1 µM (rat PTP1)	inhibition at 10 µM (rat PTP1)	inhibition at 100 µM (rat PTP1)	inhibition at 1 µM (human PTP1B; Conc 1 uM)	inhibition at 10 µM (human PTP1B; Conc 10 uM)	inhibition at 100 µM (human PTP1B; Conc 100 uM)	PTP1B Inhib PTP1B. % Inhib (human PTP1B; Conc 1 uM)	PTP1B Inhib PTP1B. % Inhib (human PTP1B; Conc 10 uM)	PTP1B Inhib PTP1B. % Inhib (human PTP1B; Conc 100 uM)	SMILES
9%	42%	88%	7%	48%	91%				CCCCCNC(=O)C(Cc1ccc(OC(COO)COO)cc1)NC(=O)C(Cc1ccccc1)NC(=O)OC(C)(C)C (centres unmarked)
			5%	25%	80%				CCCCCNC(=O)C(Cc1ccc(OC(COO)COO)cc1)NC(=O)C(Cc1c(F)c(F)c(F)c(F)c1F)NC(=O)OC(C)(C)C (centres unmarked)
						2%	19%	69%	CCCCCNC(=O)C(Cc1ccc(OCCOO)c(COO)c1)NC(=O)C(Cc1ccccc1)NC(=O)OC(C)(C)C (centres unmarked) [drawing 189]
			17%	63%	94%				CCCCCNC(=O)C(Cc1ccc(OC(COO)COO)cc1)NC(=O)Nc1cccc(C(=O)O)c1 (centres unmarked)
10%	44%	91%	9%	42%	90%				CCCCCNC(=O)C(Cc1ccc(OC(COO)COO)cc1)NC(=O)C(Cc1ccc(C(=O)c2ccccc2)cc1)NC(=O)OC(C)(C)C (centres unmarked)
			10%	50%	90%				CCCCCNC(=O)C(Cc1ccc(OC(COO)COO)cc1)NC(=O)C(Cc1ccc(O)cc1)NC(=O)OC(C)(C)C (centres unmarked)
			6%	19%	66%				CCCCCNC(=O)C(Cc1ccc(OC(COO)COO)cc1)NC(=O)CNC(=O)OCc1ccccc1 (centres unmarked)
			9%	40%	86%				CCCCCNC(=O)C(Cc1ccc(OC(COO)COO)cc1)NC(=O)C(Cc1ccccc1)NC(=O)NC(C)(C)C (centres unmarked)
			4%	24%	76%				CCCCCNC(=O)C(Cc1ccc(OC(COO)COO)cc1)NC(=O)C(CC(C)C)NC(=O)OC(C)(C)C (centres unmarked)
			7%	21%	67%				CCCCCNC(=O)C(Cc1ccc(OC(COO)COO)cc1)NC(=O)C(CC[S+](C)[O-])NC(=O)OC(C)(C)C (centres unmarked)
			14%	62%	93%				CCCCCNC(=O)C(Cc1ccc(OC(COO)COO)cc1)NC(=O)C(Cc1ccccc1)NC(=O)CCNC(=O)OC(C)(C)C (centres unmarked)
			9%	40%	85%				CCCCCNC(=O)C(Cc1ccc(OC(COO)COO)cc1)NC(=O)C(CC(N)=O)NC(=O)OC(C)(C)C (centres unmarked)
			2%		58%		7% and 17%	77%	CCCCCNC(=O)C(Cc1ccc(OC(COO)COO)cc1)NC(=O)C(CCc1ccccc1)NC(=O)OC(C)(C)C (centres unmarked)
